Literature values in patent US20100012891A1, “Tooth Whitening Compositions and Methods” (priority 2008, published 2010).

Conditions: at six months, 16%-18% carbamide peroxide (Brunton et al., 2004)

NC(N)=O.OO [carbamide peroxide]
patients with rebound: 40%
